The values that follow come from patent US9896697B2, “Defensin-encoding nucleic acid molecules derived from Nicotiana alata, uses therefor and transgenic plants comprising same” (HEXIMA LIMITED, priority 2001, dated 2018).

Assay [1] deals with Fusarium oxysporum (f. sp. vasinfectum, isolate VCG 01111). The assay is described as follows: Fungal growth inhibition assay, 96-well microtitre plate, absorbance at 595 nm. To be noted: 20 μg/mL purified protein; FIGS. 12B and 12C. It counts as cell-based. From the text:
(§1) The 96-well microtitre plate assay of Broekaert et al. (EMS Microbiology Letters 69:55-60, 1990) was used to test the effect of the purified NaPdf1 protein on the growth of Botrytis cinerea (isolated from rosemary, Brunswick, Victoria), Fusarium oxysporum (f. sp. dianthi, Race 2; isolated from carnation by Florigene Limited, Collingwood, Victoria) and Fusarium oxysporum (f. sp. vasinfectum, isolate VCG 01111 from cotton; provided by the Department of Primary Industries, Queensland). Fungal spores were isolated from sporulating cultures growing on half strength potato dextrose agar (PDA, Difco) or gamma-irradiated carnation leaves in water agar by the addition of sterile water and the use of a spreader. The suspension was filtered through two layers of autoclaved muslin and the spore concentration in the filtrate determined using a haemocytometer. The spores were used directly or after storage in sterile 20% v/v glycerol solution at −20° C.
(§2) Antifungal assays were performed in 96-well flat-bottomed microtitre plates (Greiner) under aseptic conditions. The spore concentration was adjusted to about 2×10^4 spores/mL in PDB and 80 μL of this suspension was added to each well to which 20 μL of filter sterilised (0.22 μm syringe filter, Millipore) test protein (10, 50 or 100 μg/mL) or water was added. The purity and concentration of each protein was confirmed before use by RP-HPLC analysis. Sterile water and ovalbumin (Sigma) were added to other wells as negative controls, and a mixture of the antifungal proteins α- and β-purothionin (Sigma) was used as a positive control. The plates were shaken on an orbital shaker for a few seconds to mix the spores and the test proteins. The plates were allowed to stand for 30 min to allow the spores to sediment before the optical density of the plates were determined using a Spectra Max Pro 250 microplate reader (Molecular Devices) at 595 nm absorbance. […] An increase in absorbance relative to the initial reading was correlated with the growth of fungal hyphae and this was plotted against time. […]

The test system of assay [2] is Fusarium oxysporum (f. sp. dianthi, Race 2). The assay is described as above. The format is cell-based. To be noted: 20 μg/mL purified protein; FIG. 12A.
Source text: as §1, §2

In another assay the test system is Botrytis cinerea. The description is as above. It counts as cell-based. The settings on record: 20 μg/mL purified protein; FIG. 11.
Source text: as §1, §2

Another assay deals with H. armigera larvae. Put plainly: Insect feeding trial with artificial cotton leaf diet. It counts as in vivo. To be noted: 0.3% (w/v) test protein in artificial diet; casein control; FIG. 16. The text has this: Table 2 Artificial diet ingredients used in the feeding trial of H. armigera [table] Helicoverpa punctigera larvae came from a colony collected in Victoria, Australia and maintained in culture at La Trobe University, Melbourne and H. armigera were obtained from a colonies maintained at La Trobe University, Melbourne or the Australian Cotton Research Institute, at the Entomology Department of the Commonwealth Scientific and Industrial Research Organisation in Narrabri, NSW. To confirm that the insecticidal activity was due to the defensin and not to upregulation of other endogenous defense molecules, a feeding trial using artificial cotton leaf diet containing purified defensin from floral buds was performed. The 6 kDa cysteine rich proteinase inhibitors (NaPI) from N. alata (Atkinson et al., Plant Cell 5: 203-213, 1993) were used as positive control and casein was used as a negative control. Feeding trials were conducted as described in Heath et al. (J. Insect Physiology 43: 833-842, 1997 except that the artificial diet was based on cotton leaves (Table 2). Thirty milligram of defensin was purified from floral buds of N. alata and used in artificial diets at two concentrations. H. armigera larvae fed on defensin at 0.3% (w/v) were 40% smaller than controls (FIG. 16) while larvae fed on NaPI at the same concentration were about 60% smaller than controls.

Regarding “NaPdf1: Mature floral defensin (47 amino acids, ~5.3 kDa) from Nicotiana alata, purified from floral buds (RECKTESNTFPGICITKPPCRKACISEKFTDGHCSKILRRCLCTKPC; listed as Nicotiana alata)”, in assay [1], the “growth inhibition of F. oxysporum f. sp. vasinfectum” value was “effectiveness”. Moreover, the “growth inhibition of F. oxysporum f. sp. dianthi” value in assay [2] is given as “effectiveness”. In addition, the “growth inhibition of B. cinerea” value in the assay on Botrytis cinerea was “effectiveness”. Also, the “larvae smaller than controls (mean weight)” value in the assay on H. armigera larvae worked out at 40%.
